Data set [1] can be described thus: Measurement of kinetic solubility. The following applies: 100 mM sodium phosphate buffer, pH 6.5, aqueous buffer, kinetic from dmso stock. Here is the method: Kinetic solubility was determined with a […] stock solution from the compound(s) of interest. […] Samples and standards were then centrifuged and an aliquot was removed for HPLC analysis. Samples and standards were analyzed by HPLC and a final concentration for the sample was determined based on a one-point calibration curve from the corresponding standard. Results were reported as μg's/mL.

A further data set addresses T1, CDK2/Cyclin A (Homo sapiens, UniProt P24941).
T1 construct: made in house; host or cells: CDK2: insect cells (baculovirus); cyclin A: E. coli
Nature of the data set: Inhibition of CDK2/Cyclin A retinoblastoma kinase activity (apparent Ki). Format: biochemical. The following applies: read-out: CDK2 Ki. Put shortly: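 Cyclin A complex (proteolyzed cyclin) purified by gel filtration; enzyme-initiated reactions ran 20 min at 30 °C, transferring radiolabelled phosphate from [32P]/[33P]ATP onto a protein substrate, stopped with EDTA and quantified by phosphorimager.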

In brackets after ≈: the same amount, converted by molar mass. Bounds are passed on as bounds.

On to `CCNCc1cncc(-c2ccc3[nH]nc(-c4nc(C(=O)NCc5cccnc5)c[nH]4)c3c2)c1C` [Example 49, 2-(5-{5-[(ethylamino)methyl]-4-methylpyridin-3-yl}-1H-indazol-3-yl)-N-(pyridin-3-ylmethyl)-1H-imidazole-5-carboxamide], for which the solubility in data set [1] is more than 120 µg/mL. Moreover, the Ki at CDK2/Cyclin A was less than 50 nM.

`CCNCc1cncc(-c2ccc3[nH]nc(-c4cnc[nH]4)c3c2)c1C` [Example 90, N-({5-[3-(1H-imidazol-5-yl)-1H-indazol-5-yl]-4-methylpyridin-3-yl}methyl)ethanamine] returned a solubility in data set [1] of more than 120 µg/mL. Besides, the Ki on CDK2/Cyclin A was less than 50 nM.

`CCNCc1cncc(-c2ccc3[nH]nc(-c4nc(C(=O)NC5CC6CCC(C5)N6)c[nH]4)c3c2)c1C` (stereo not drawn) [Example 77, N-8-azabicyclo[3.2.1]oct-3-yl-2-(5-{5-[(ethylamino)methyl]-4-methylpyridin-3-yl}-1H-indazol-3-yl)-1H-imidazole-5-carboxamide] registered a solubility in data set [1] of more than 120 µg/mL. Further, the Ki at CDK2/Cyclin A is more than 200 nM.

In data set [1], `CCNCc1cncc(-c2ccc3[nH]nc(-c4ncc(C(=O)N[C@H]5CCc6ccccc65)[nH]4)c3c2)c1C` [Example 53, N-[(1S)-2,3-dihydro-1H-inden-1-yl]-2-(5-{5-[(ethylamino)methyl]-4-methylpyridin-3-yl]-1H-indazol-3-yl)-1H-imidazole-5-carboxamide] had a solubility of 20 to 120 µg/mL (≈ 40.7 to 244 µM). The Ki on CDK2/Cyclin A is less than 50 nM.

`CCNCc1cncc(-c2ccc3[nH]nc(-c4nc5c([nH]4)CCCC5)c3c2)c1CC` [Example 46, Ethyl-{4-ethyl-5-[3-(4,5,6,7-tetrahydro-1H-benzoimidazol-2-yl)-1H-indazol-5-yl]-pyridin-3-ylmethyl}-amine] returned a solubility in data set [1] of more than 120 µg/mL. Also, the Ki on CDK2/Cyclin A was less than 50 nM.

As for `CCNCc1cncc(-c2ccc3[nH]nc(-c4nc(C(=O)NCC)c[nH]4)c3c2)c1C` [Example 63, N-ethyl-2-(5-{5-[(ethylamino)methyl]-4-methylpyridin-3-yl}-1H-indazol-3-yl)-1H-imidazole-5-carboxamide], in data set [1], the solubility is more than 120 µg/mL. Also, the Ki on CDK2/Cyclin A was less than 50 nM.

In data set [1], `CCNCc1cncc(-c2ccc3[nH]nc(-c4nc(-c5ccccc5)c(C(=O)NCCCOC)[nH]4)c3c2)c1C` [Example 11, 2-[5-(5-Ethylaminomethyl-4-methyl-pyridin-3-yl)-1H-indazol-3-yl]-5-phenyl-3H-imidazole-4-carboxylic acid (3-methoxy-propyl)-amide] displayed a solubility of more than 120 µg/mL. Further, the Ki on CDK2/Cyclin A is 50 to 200 nM.

`COCc1cncc(-c2ccc3[nH]nc(-c4ncc[nH]4)c3c2)c1C` [Example 42, 3-(1H-Imidazol-2-yl)-5-(5-methoxymethyl-4-methyl-pyridin-3-yl)-1H-indazole] showed a solubility in data set [1] of more than 120 µg/mL. Moreover, the Ki at CDK2/Cyclin A was in the range of 50 to 200 nM.

In data set [1], `CCNCc1cncc(-c2ccc3[nH]nc(-c4nc(-c5ccccc5)c(C(=O)N5CCC[C@H]5COC)[nH]4)c3c2)c1C` [Example 14, {2-[5-(5-Ethylaminomethyl-4-methyl-pyridin-3-yl)-1H-indazol-3-yl]-5-phenyl-3H-imidazol-4-yl}-(2-methoxymethyl-pyrrolidin-1-yl)-methanone] showed a solubility of more than 120 µg/mL. Further, the Ki on CDK2/Cyclin A was more than 200 nM.

Compound `CCOCc1cncc(-c2ccc3[nH]nc(-c4nc5c([nH]4)CCCC5)c3c2)c1C` [Example 43, 5-(5-Ethoxymethyl-4-methyl-pyridin-3-yl)-3-(4,5,6,7-tetrahydro-1H-benzoimidazol-2-yl)-1H-indazole] gave a solubility in data set [1] of 20 to 120 µg/mL (≈ 51.6 to 310 µM). On CDK2/Cyclin A, the Ki is 50 to 200 nM.

`CCNCc1cncc(-c2ccc3[nH]nc(-c4ncc(C(=O)N5CCC(Cc6ncccn6)CC5)[nH]4)c3c2)c1C` [Example 85, N-({4-methyl-5-[3-(5-{[4-(pyrimidin-2-ylmethyl)piperidin-1-yl]carbonyl}-1H-imidazol-2-yl)-1H-indazol-5-yl]pyridin-3-yl}methyl)ethanamine]: in data set [1], the solubility is more than 120 µg/mL. For the same compound, the Ki on CDK2/Cyclin A is less than 50 nM.

`c1c[nH]c(-c2n[nH]c3ccc(-c4cncc5[nH]ccc45)cc23)n1` [Example 94, 3-(1H-Imidazol-2-yl)-5-(1H-pyrrolo[2,3-c]pyridin-4-yl)-1H-indazole] showed a solubility in data set [1] of 20 to 120 µg/mL (≈ 66.6 to 400 µM). Further, the Ki at CDK2/Cyclin A was less than 50 nM.

With `CCOCc1cncc(-c2ccc3[nH]nc(-c4ncc[nH]4)c3c2)c1C` [Example 44, 5-(5-Ethoxymethyl-4-methyl-pyridin-3-yl)-3-(1H-imidazol-2-yl)-1H-indazole], the solubility in data set [1] is more than 120 µg/mL. Moreover, the Ki at CDK2/Cyclin A fell in the range of 50 to 200 nM.

`CCNCc1cncc(-c2ccc3[nH]nc(-c4nc(-c5ccccc5)c(C(=O)N5CCCCC5)[nH]4)c3c2)c1C` [Example 9, {2-[5-(5-Ethylaminomethyl-4-methyl-pyridin-3-yl)-1H-indazol-3-yl]-5-phenyl-3H-imidazol-4-yl}-piperidin-1-yl-methanone] came in with a solubility in data set [1] of 20 to 120 µg/mL (≈ 38.5 to 231 µM). Also, the Ki on CDK2/Cyclin A is more than 200 nM.

With `CCNCc1cncc(-c2ccc3[nH]nc(-c4nc(-c5ccccc5)c(C(=O)NCC)[nH]4)c3c2)c1C` [Example 2, 2-[5-(5-Ethylaminomethyl-4-methyl-pyridin-3-yl)-1H-indazol-3-yl]-5-phenyl-3H-imidazole-4-carboxylic acid ethylamide], the solubility in data set [1] was in the range of 20 to 120 µg/mL (≈ 41.7 to 250 µM). For the same compound, at CDK2/Cyclin A, the Ki is 50 to 200 nM.

`CCNCc1cncc(-c2ccc3[nH]nc(-c4nc(CC)c(CC)[nH]4)c3c2)c1C` [Example 22, {5-[3-(4,5-Diethyl-1H-imidazol-2-yl)-1H-indazol-5-yl]-4-methyl-pyridin-3-ylmethyl}-ethyl-amine] came in with a solubility in data set [1] of more than 120 µg/mL. The Ki at CDK2/Cyclin A was less than 50 nM.

`CCNCc1cncc(-c2ccc3[nH]nc(-c4nc(C(=O)NC5CCCCC5)c[nH]4)c3c2)c1C` [Example 50, N-cyclohexyl-2-(5-{5-[(ethylamino)methyl]-4-methylpyridin-3-yl}-1H-indazol-3-yl)-1H-imidazole-5-carboxamide] registered a solubility in data set [1] of 20 to 120 µg/mL (≈ 43.7 to 262 µM). Further, the Ki at CDK2/Cyclin A was less than 50 nM.

`CCNCc1cncc(-c2ccc3[nH]nc(-c4ncc(C(=O)N5Cc6ccccc6C5)[nH]4)c3c2)c1C` [Example 68, N-[(5-{3-[5-(1,3-dihydro-2H-isoindol-2-ylcarbonyl)-1H-imidazol-2-yl]-1H-indazol-5-yl}-4-methylpyridin-3-yl)methyl]ethanamine] registered a solubility in data set [1] of less than 20 µg/mL. Besides, the Ki at CDK2/Cyclin A is less than 50 nM.

In data set [1], `CCNCc1cncc(-c2ccc3[nH]nc(-c4nc(-c5ccccc5)c(C(=O)NC5CCCC5)[nH]4)c3c2)c1C` [Example 8, 2-[5-(5-Ethylaminomethyl-4-methyl-pyridin-3-yl)-1H-indazol-3-yl]-5-phenyl-3H-imidazole-4-carboxylic acid cyclopentylamide] yielded a solubility of 20 to 120 µg/mL (≈ 38.5 to 231 µM). Further, on CDK2/Cyclin A, the Ki lay in the range of 50 to 200 nM.

With `CCNCc1cncc(-c2ccc3[nH]nc(-c4ncc[nH]4)c3c2)c1CC` [Example 47, Ethyl-{4-ethyl-5-[3-(1H-imidazol-2-yl)-1H-indazol-5-yl]-pyridin-3-ylmethyl}-amine], the solubility in data set [1] was more than 120 µg/mL. For the same compound, on CDK2/Cyclin A, the Ki is less than 50 nM.

In data set [1], `CCNCc1cncc(-c2ccc3[nH]nc(-c4ncc(C(=O)N5CCCC5)[nH]4)c3c2)c1C` [Example 61, N-[(4-methyl-5-{3-[5-(pyrrolidin-1-ylcarbonyl)-1H-imidazol-2-yl]-1H-indazol-5-yl}pyridin-3-yl)methyl]ethanamine] gave a solubility of 20 to 120 µg/mL (≈ 46.6 to 279 µM). The Ki on CDK2/Cyclin A was less than 50 nM.

`CCNCc1cncc(-c2ccc3[nH]nc(-c4nc(-c5ccccc5)c[nH]4)c3c2)c1C` [Example 30, Ethyl-{4-methyl-5-[3-(4-phenyl-1H-imidazol-2-yl)-1H-indazol-5-yl]-pyridin-3-ylmethyl}-amine] gave a solubility in data set [1] of 20 to 120 µg/mL (≈ 49 to 294 µM). Besides, the Ki on CDK2/Cyclin A was less than 50 nM.

The compound `CCNCc1cncc(-c2ccc3[nH]nc(-c4ncc(C(=O)NC5C6CC7CC(C6)CC5C7)[nH]4)c3c2)c1C` (stereo not drawn) [Example 72, N-2-adamantyl-2-(5-{5-[(ethylamino)methyl]-4-methylpyridin-3-yl}-1H-indazol-3-yl)-1H-imidazole-5-carboxamide] showed a solubility in data set [1] of less than 20 µg/mL. Moreover, the Ki on CDK2/Cyclin A was less than 50 nM.

In data set [1], `CCNCc1cncc(-c2ccc3[nH]nc(-c4cnc(-c5ccncc5)[nH]4)c3c2)c1C` [Example 96, Ethyl-{4-methyl-5-[3-(2-pyridin-4-yl-3H-imidazol-4-yl)-1H-indazol-5-yl]-pyridin-3-ylmethyl}-amine] displayed a solubility of more than 120 µg/mL. The Ki on CDK2/Cyclin A was 50 to 200 nM.

In data set [1], `CCNCc1cncc(-c2ccc3[nH]nc(-c4ncc(C(=O)N[C@@H]5CCc6ccccc65)[nH]4)c3c2)c1C` [Example 51, N-[(1R)-2,3-dihydro-1H-inden-1-yl]-2-(5-{5-[(ethylamino)methyl]-4-methylpyridin-3-yl}-1H-indazol-3-yl)-1H-imidazole-5-carboxamide] had a solubility of 20 to 120 µg/mL (≈ 40.7 to 244 µM). Further, the Ki on CDK2/Cyclin A is less than 50 nM.

The compound `CCNCc1cncc(-c2ccc3[nH]nc(-c4ncc[nH]4)c3c2)c1C` [Example 1, 5-(5-ethylaminomethyl-4-methylpyridin-3-yl)-3-(1H-imidazol-2-yl)-1H-indazole] returned a solubility in data set [1] of more than 120 µg/mL. Moreover, the Ki at CDK2/Cyclin A was less than 50 nM.

On to `CCNCc1cncc(-c2ccc3[nH]nc(-c4nc(-c5ccccc5)c(C(=O)NCCOC)[nH]4)c3c2)c1C` [Example 3, 2-[5-(5-Ethylaminomethyl-4-methyl-pyridin-3-yl)-1H-indazol-3-yl]-5-phenyl-3H-imidazol-4-carboxylic acid (2-methoxy-ethyl)-amide], for which the solubility in data set [1] lay in the range of 20 to 120 µg/mL (≈ 39.2 to 235 µM). Moreover, the Ki at CDK2/Cyclin A was 50 to 200 nM.

What is called solubility is how much of the substance goes into solution per volume.
